Experimental data from ChEMBL document CHEMBL4732150 (J Med Chem, 2021).

Experiments:
[1] = Intrinsic clearance in human liver microsomes preincubated for 10 mins under shaking condition followed by NADPH generating system addition and measured up to 60 mins by LC-MS/MS analysis; type: ADME, Microsome; conditions: 1 h, time <=70 min
[2] = Intrinsic clearance in CD1 mouse liver microsomes preincubated for 10 mins under shaking condition followed by NADPH generating system addition and measured up to 60 mins by LC-MS/MS analysis; type: ADME, Microsome; conditions: 1 h, time <=70 min
Cytochrome P450 1A2 = target: T1, Cytochrome P450 1A2 (Homo sapiens, UniProt P05177); experiment: Inhibition of CYP1A2 in human liver microsomes using phenacetin as substrate preincubated for 10 mins in presence of NADPH generating system followed by substrate addition and measured after 3 mins by LC-MS/MS analysis; type: ADME
T1 sequence (P05177 whole entry): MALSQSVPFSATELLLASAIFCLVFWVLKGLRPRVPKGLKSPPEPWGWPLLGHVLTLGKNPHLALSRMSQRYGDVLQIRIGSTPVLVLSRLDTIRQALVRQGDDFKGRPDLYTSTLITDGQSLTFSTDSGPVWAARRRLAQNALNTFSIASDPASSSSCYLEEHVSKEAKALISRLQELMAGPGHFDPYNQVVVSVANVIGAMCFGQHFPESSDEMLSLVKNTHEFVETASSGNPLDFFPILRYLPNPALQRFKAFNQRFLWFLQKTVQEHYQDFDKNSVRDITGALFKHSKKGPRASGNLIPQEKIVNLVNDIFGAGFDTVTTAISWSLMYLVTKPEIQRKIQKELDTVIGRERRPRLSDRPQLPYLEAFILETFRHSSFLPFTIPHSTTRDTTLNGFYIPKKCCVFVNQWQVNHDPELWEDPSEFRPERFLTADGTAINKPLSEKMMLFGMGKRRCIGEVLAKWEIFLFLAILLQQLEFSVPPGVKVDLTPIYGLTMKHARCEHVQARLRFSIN

[3] = Drug metabolism in Sprague-Dawley rat liver microsomes assessed as 3,3-dideuterio-N-[4-methoxy-2-[methyl-[2-(methylamino)ethyl]amino]-5-[[4-[1-(trideuteriomethyl)indol-3-yl]pyrimidin-2-yl]amino]phenyl]prop-2-enamide metabolite formation preincubated for 10 mins under shaking condition followed by NADPH generating system addition and measured up to 60 mins by LC-MS/MS analysis; type: ADME, Microsome; conditions: 1 h, time <=70 min
[4] = Cmax in Sprague-Dawley rat at 2 mg/kg, iv administered as single dose and measured upto 24 hrs by LC-MS/MS analysis; type: ADME, organism-based; set-up: route intravenous, dose 2 mg/kg, time <=24; conditions: in vivo
Cytochrome P450 2C9 = Cytochrome P450 2C9 (Homo sapiens, UniProt P11712); experiment: Inhibition of CYP2C9 in human liver microsomes using diclofenac as substrate preincubated for 10 mins in presence of NADPH generating system followed by substrate addition and measured after 10 mins by LC-MS/MS analysis; type: ADME
Sequence of Cytochrome P450 2C9 (P11712 whole entry): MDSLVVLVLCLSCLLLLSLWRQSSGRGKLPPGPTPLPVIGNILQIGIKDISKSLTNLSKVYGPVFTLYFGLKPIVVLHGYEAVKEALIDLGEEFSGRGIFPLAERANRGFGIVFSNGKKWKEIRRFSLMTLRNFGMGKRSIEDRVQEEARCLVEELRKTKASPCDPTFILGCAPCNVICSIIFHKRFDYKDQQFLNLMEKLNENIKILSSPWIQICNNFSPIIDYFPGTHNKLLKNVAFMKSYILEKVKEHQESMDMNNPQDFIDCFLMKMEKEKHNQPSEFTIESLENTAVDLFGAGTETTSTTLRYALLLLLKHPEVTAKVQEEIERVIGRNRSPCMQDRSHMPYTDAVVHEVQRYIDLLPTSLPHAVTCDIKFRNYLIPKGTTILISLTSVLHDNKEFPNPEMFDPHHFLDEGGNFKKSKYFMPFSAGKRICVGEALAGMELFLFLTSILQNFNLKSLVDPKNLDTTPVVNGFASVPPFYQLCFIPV

[5] = Half life in CD1 mouse liver microsomes preincubated for 10 mins under shaking condition followed by NADPH generating system addition and measured up to 60 mins by LC-MS/MS analysis
[6] = (§1) Drug metabolism in CD1 mouse liver microsomes assessed as 3,3-dideuterio-N-[2-(2-dimethylaminoethylamino)-4-methoxy-5-[[4-[1-(trideuteriomethyl)indol-3-yl]pyrimidin-2-yl]amino]phenyl]prop-2-enamide metabolite formation preincubated for 10 mins under shaking condition followed by NADPH generating system addition and measured up to 60 mins by LC-MS/MS analysis; type: ADME, Microsome; conditions: 1 h, time <=70 min
Cytochrome P450 2D6 = Cytochrome P450 2D6 (Homo sapiens, UniProt P10635); experiment: Inhibition of CYP2D6 in human liver microsomes using dextromethorphan as substrate preincubated for 10 mins in presence of NADPH generating system followed by substrate addition and measured after 20 mins by LC-MS/MS analysis; type: ADME
Sequence of Cytochrome P450 2D6 (P10635 whole entry): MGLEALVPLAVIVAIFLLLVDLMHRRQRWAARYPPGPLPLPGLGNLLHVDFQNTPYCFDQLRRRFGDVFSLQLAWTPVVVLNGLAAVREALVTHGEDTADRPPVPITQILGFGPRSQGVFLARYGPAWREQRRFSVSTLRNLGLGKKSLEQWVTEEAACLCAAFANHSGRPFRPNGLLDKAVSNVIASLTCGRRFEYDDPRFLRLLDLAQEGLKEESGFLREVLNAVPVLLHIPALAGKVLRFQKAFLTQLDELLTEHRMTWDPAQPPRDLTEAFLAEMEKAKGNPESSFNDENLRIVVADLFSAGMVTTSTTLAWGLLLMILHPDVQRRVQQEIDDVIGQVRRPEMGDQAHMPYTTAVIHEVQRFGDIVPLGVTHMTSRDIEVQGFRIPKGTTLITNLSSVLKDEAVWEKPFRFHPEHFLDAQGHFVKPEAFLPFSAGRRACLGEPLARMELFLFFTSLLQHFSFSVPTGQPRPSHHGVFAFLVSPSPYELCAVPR

[7] = Tmax in Sprague-Dawley rat at 6 mg/kg/day, IG administered for 7 consecutive days by LC-MS/MS analysis; type: ADME, organism-based; conditions: in vivo, po, time 7 day
[8] = as §1, with “Beagle dog” for “CD1 mouse”; type: ADME, Canis lupus familiaris, Microsome; conditions: 1 h, time <=70 min
[9] = Half life in cynomolgus monkey liver microsomes preincubated for 10 mins under shaking condition followed by NADPH generating system addition and measured up to 60 mins by LC-MS/MS analysis
[10] = Drug metabolism in Sprague-Dawley rat liver microsomes assessed as 3,3-dideuterio-N-[2-(2-dimethylaminoethylamino)-4-methoxy-5-[[4-[1-(trideuteriomethyl)indol-3-yl]pyrimidin-2-yl]amino]phenyl]prop-2-enamide metabolite formation preincubated for 10 mins under shaking condition followed by NADPH generating system addition and measured up to 60 mins by LC-MS/MS analysis; type: ADME, Microsome; conditions: 1 h, time <=70 min
[11] = Drug metabolism in cynomolgus monkey liver microsomes assessed as 3,3-dideuterio-N-[4-methoxy-2-(methylamino)-5-[[4-[1-(trideuteriomethyl)indol-3-yl]pyrimidin-2-yl]amino]phenyl]prop-2-enamide metabolite formation preincubated for 10 mins under shaking condition followed by NADPH generating system addition and measured up to 60 mins by LC-MS/MS analysis; type: ADME, Macaca fascicularis, Microsome; conditions: 1 h, time <=70 min
in vivo [12] = conditions: Sprague-Dawley, rat, iv, 2 mg/kg
[13] = Half life in Beagle dog liver microsomes preincubated for 10 mins under shaking condition followed by NADPH generating system addition and measured up to 60 mins by LC-MS/MS analysis
[14] = Intrinsic clearance in Sprague-Dawley rat liver microsomes preincubated for 10 mins under shaking condition followed by NADPH generating system addition and measured up to 60 mins by LC-MS/MS analysis; type: ADME, Microsome; conditions: 1 h, time <=70 min
[15] = Cmax in Sprague-Dawley rat at 6 mg/kg/day, IG and measured on day 7 by LC-MS/MS analysis; type: ADME, organism-based; set-up: route […], dose 6 mg/kg/day, time 7 day; conditions: in vivo, po
[16] = Drug metabolism in cynomolgus monkey liver microsomes assessed as 3,3-dideuterio-N-[2-(2-dimethylaminoethylamino)-4-methoxy-5-[[4-[1-(trideuteriomethyl)indol-3-yl]pyrimidin-2-yl]amino]phenyl]prop-2-enamide metabolite formation preincubated for 10 mins under shaking condition followed by NADPH generating system addition and measured up to 60 mins by LC-MS/MS analysis; type: ADME, Macaca fascicularis, Microsome; conditions: 1 h, time <=70 min
[17] = Cmax in Sprague-Dawley rat at 6 mg/kg/day, IG administered for 7 consecutive days by LC-MS/MS analysis; type: ADME, organism-based; set-up: route […], time 7 day, dose 6 mg/kg/day; conditions: in vivo, po
[18] = Oral bioavailability in Sprague-Dawley rat at 2 mg/kg, IG administered as single dose and measured upto 24 hrs by LC-MS/MS analysis; type: ADME, organism-based; conditions: in vivo
[19] = Tmax in Sprague-Dawley rat at 12 mg/kg, IG administered as single dose and measured upto 24 hrs by LC-MS/MS analysis; type: ADME, organism-based; conditions: in vivo, po
in vivo [20] = conditions: Sprague-Dawley, rat, po, 12 mg/kg
in vivo [21] = conditions: Sprague-Dawley, rat, po, 2 mg/kg
[22] = Intrinsic clearance in Beagle dog liver microsomes preincubated for 10 mins under shaking condition followed by NADPH generating system addition and measured up to 60 mins by LC-MS/MS analysis; type: ADME, Canis lupus familiaris, Microsome; conditions: 1 h, time <=70 min

Structure (SMILES): CS(=O)(=O)O.[2H]C([2H])=CC(=O)Nc1cc(Nc2nccc(-c3cn(C([2H])([2H])[2H])c4ccccc34)n2)c(OC)cc1N(C)CCN(C)C
- CLint [1]: 9.6 µL/min/mg
- CLint [2]: 58.6 µL/min/mg
- IC50 (Cytochrome P450 1A2): 39.8 µM
- Drug metabolism [3]: Metabolite_Detected
- Cmax [4]: 277 nM
- IC50 (Cytochrome P450 2C9): > 50 µM
- half-life at 1 h [5]: 0.395 h
- Drug metabolism [6]: Metabolite_Detected
- IC50 (Cytochrome P450 2D6): > 50 µM
- Tmax [7]: 4.67 h
- Drug metabolism [8]: Metabolite_Detected
- half-life at 1 h [9]: 0.427 h
- Drug metabolism [10]: Metabolite_Detected
- Drug metabolism [11]: Metabolite_Detected
- half-life at 24 h (in vivo [12]): 5.4 h
- half-life at 1 h [13]: 0.377 h
- CLint [14]: 40 µL/min/mg
- Cmax [15]: 180 nM
- Drug metabolism [16]: Metabolite_Detected
- Cmax [17]: 113 nM
- bioavailability [18]: 41.2%
- Tmax [19]: 5 h
- half-life at 24 h (in vivo [20]): 4.04 h
- half-life at 24 h (in vivo [21]): 3.76 h
- CLint [22]: 61.3 µL/min/mg
